The test system of series [1] is rats. As to conditions: systemic administration; cited from earlier work.
The subject of series [2] is Caco-2 monolayers. In words: In vitro permeability, Caco-2 model for oral absorption. In kind it is in vitro ADME. The method, then:
(§1) In vitro permeability was determined using the Caco-2 model for oral absorption. The methodology was adapted from standard published methods (Wang Z, Hop C. E., Leung K. H. and Pang J. (2000) J Mass Spectrom 35(1); 71-76). […] For the assay, 50 μM test compound is added to the apical side of the inserts and incubated for 1 hour at 37° C. on a shaking platform (120 rpm). Apical to basolateral transport was determined by measuring the test article in both compartments by LCMS following the 1 hour incubation. The integrity of the Caco-2 monolayers was confirmed by two methods, (i) comparison of pre- and post-experiment transepithelial electrical resistance (TEER) and, (ii) assessment of Lucifer Yellow flux.

Experiment in series [3]: as above
As to conditions: human, Caco-2; 50 μM, apical to basolateral, 1 hour at 37° C. In kind it is in vitro ADME. The method, then:
as §1

The nature of series [4]: Pharmacokinetics after a single oral dose in rats. As to conditions: male, Sprague-Dawley, rat, 10% DMSO/10% cremophor/80% SWFI, plasma. In kind it is in vivo. Here is the method: Pharmacokinetic studies of the compounds in Table 4 were performed to assess the pharmacokinetics following a single oral dose in male Sprague-Dawley rats. […] Following dosing, blood samples were collected over a period of […]. Sample times were 5, 15 and 30 minutes then 1, 2, 4, 6, 8 and 12 hours. Following collection, blood samples were centrifuged and the plasma fraction analysed for concentration of test compound by LCMS.

In series [5] the target is trypsin. The experiment in a line: Enzyme selectivity, trypsin. As to conditions: substrate at Km concentration. In kind it is biochemical, human.
Experimental: Human serine protease enzymes plasmin, thrombin and trypsin were assayed for enzymatic activity using an appropriate fluorogenic substrate. Protease activity was measured by monitoring the accumulation of liberated fluorescence from the substrate over 5 minutes. The linear rate of fluorescence increase per minute was expressed as percentage (%) activity. The Km for the cleavage of each substrate was determined by standard transformation of the Michaelis-Menten equation.
The target in series [6] is T1, Human FXIa (Homo sapiens, UniProt P03951).
T1 construct: purchased Enzyme Research Laboratories
T1 sequence (P03951 388-625 limits assumed): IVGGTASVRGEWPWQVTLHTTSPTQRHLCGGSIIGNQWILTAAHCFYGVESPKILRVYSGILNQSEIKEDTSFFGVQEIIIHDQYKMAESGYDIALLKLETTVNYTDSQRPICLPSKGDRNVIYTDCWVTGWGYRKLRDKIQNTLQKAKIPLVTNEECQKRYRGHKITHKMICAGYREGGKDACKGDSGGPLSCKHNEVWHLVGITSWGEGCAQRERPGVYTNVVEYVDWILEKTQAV
T1 sequence (P03951 19-387 partner limits assumed): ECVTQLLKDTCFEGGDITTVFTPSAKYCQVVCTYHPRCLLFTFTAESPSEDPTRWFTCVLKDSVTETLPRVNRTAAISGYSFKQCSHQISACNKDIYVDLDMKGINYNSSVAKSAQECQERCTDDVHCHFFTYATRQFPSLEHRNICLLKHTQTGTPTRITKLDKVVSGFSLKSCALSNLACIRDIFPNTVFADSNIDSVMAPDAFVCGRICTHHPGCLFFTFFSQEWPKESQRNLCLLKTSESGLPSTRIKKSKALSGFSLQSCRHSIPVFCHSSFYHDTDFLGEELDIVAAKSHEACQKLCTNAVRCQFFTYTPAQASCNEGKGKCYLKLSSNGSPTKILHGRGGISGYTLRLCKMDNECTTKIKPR
In words: Determination of the % inhibition / IC50 for FXIa. The note with it: 25° C., substrate Z-Gly-Pro-Arg-AFC. In kind it is biochemical. Here is the method: Residual enzyme activity (initial rate of reaction) was determined by measuring the change in optical absorbance at 410 nm and the IC50 value for the test compound was determined.

Series [7] concerns the target T2, Human Factor XIIa (Homo sapiens, UniProt P00748).
T2 construct: purchased Enzyme Research Laboratories
The experiment in a line: Determination of the IC50 for FXIIa. As to conditions: 25° C., substrate H-DPro-Phe-Arg-AFC. In kind it is biochemical. The method, then:
Factor XIIa inhibitory activity in vitro was determined using standard published methods (see e.g. Shori et al., Biochem. Pharmacol., 1992, 43, 1209; Baeriswyl et al., ACS Chem. Biol., 2015, 10 (8) 1861; Bouckaert et al., European Journal of Medicinal Chemistry 110 (2016) 181). Human Factor XIIa (Enzyme Research Laboratories) was incubated at 25° C. with the fluorogenic substrate H-DPro-Phe-Arg-AFC and various concentrations of the test compound. Residual enzyme activity (initial rate of reaction) was determined by measuring the […] and the IC50 value for the test compound was determined.

Series [8] concerns the target T3, Human KLK1 (Homo sapiens, UniProt P06870).
T3 construct: purchased Callbiochem
The experiment in a line: Determination of the IC50 for KLK1. In kind it is biochemical. The note with it: 25° C., substrate H-DVal-Leu-Arg-AFC. The method, then: KLK1 inhibitory activity in vitro was determined using standard published methods (see e.g. Johansen et al., Int. J. Tiss. Reac. 1986, 8, 185; Shori et al., Biochem. Pharmacol., 1992, 43, 1209; Stürzebecher et al., Biol. Chem. Hoppe-Seyler, 1992, 373, 1025). Human KLK1 (Callbiochem) was incubated at 25° C. with the fluorogenic substrate H-DVal-Leu-Arg-AFC and various concentrations of the test compound. Residual enzyme activity (initial rate of reaction) was determined by measuring the change in optical absorbance at 410 nm and the IC50 value for the test compound was determined.

For series [9], the system named is LPS-induced disseminated intravascular coagulation. As to conditions: cited from earlier work.
The test system of series [10] is intrinsic pathway of coagulation. The note with it: in vitro; cited from earlier work.
The test system of series [11] is blood. The note with it: contacting blood with the substance; cited from earlier work.
Series [12] deals with postoperative bleeding. The note with it: in vivo; cited from earlier work.

The text below walks through data of US20200325116A1, “SOLID FORMS OF A PLASMA KALLIKREIN INHIBITOR AND SALTS THEREOF” (KALVISTA PHARMACEUTICALS LIMITED, priority 2017, published 2020).

T2 sequence (P00748 373-615 limits assumed, other chains not shown): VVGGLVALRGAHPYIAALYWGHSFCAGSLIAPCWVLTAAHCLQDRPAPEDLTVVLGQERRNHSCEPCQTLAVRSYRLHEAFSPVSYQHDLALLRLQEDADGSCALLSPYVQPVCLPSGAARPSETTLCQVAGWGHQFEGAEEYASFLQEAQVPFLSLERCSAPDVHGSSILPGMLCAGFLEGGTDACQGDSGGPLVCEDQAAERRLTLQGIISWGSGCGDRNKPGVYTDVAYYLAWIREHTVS
T3 sequence (P06870 25-262): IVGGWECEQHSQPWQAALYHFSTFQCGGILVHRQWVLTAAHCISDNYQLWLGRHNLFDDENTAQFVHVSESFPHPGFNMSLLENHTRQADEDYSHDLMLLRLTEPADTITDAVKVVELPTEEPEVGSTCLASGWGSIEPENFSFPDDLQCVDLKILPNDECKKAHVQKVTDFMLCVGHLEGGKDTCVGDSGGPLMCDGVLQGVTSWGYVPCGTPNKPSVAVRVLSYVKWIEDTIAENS

For the compound `N=C(N)c1ccc(CNC(=O)c2cnn(Cc3ccccc3)c2)cc1` [ASP-440], the hematoma expansion result in series [1] is on record as “reduced”.

For the compound `COc1ccnc(CNC(=O)c2cn(Cc3ccc(Cn4ccccc4=O)cc3)nc2C(F)(F)F)c1F` [Compound of Formula A, N-[(3-fluoro-4-methoxypyridin-2-yl)methyl]-1-({4-[(2-oxopyridin-1-yl)methyl]phenyl}methyl)-3-(trifluoromethyl)pyrazole-4-carboxamide], in [2], the “pharmacokinetic properties, in particular in vitro permeability (in words)” value is reported as “surprisingly good”. In series [3], this compound displayed a Papp A→B at 1 h, 50 μM of 17 ×10⁻⁶ cm/s. Besides, in [4] (po 2.2 mg/kg), the Cmax is 1800 ng/mL and the Tmax is 0.5 h. The compound further gave an IC50 in [5] greater than 40 µM.

Regarding `COCc1nn(Cc2ccc(Cn3ccccc3=O)cc2)cc1C(=O)NCc1nccc(OC)c1F` [Example 41 of WO2016/083820, N-[(3-fluoro-4-methoxypyridin-2-yl)methyl]-3-(methoxymethyl)-1-({4-[(2-oxopyridin-1-yl)methyl]phenyl}methyl)pyrazole-4-carboxamide], the IC50 in [6], in series [7] and in series [8] was greater than 40 µM in each case. This compound gave a maximum concentration (Cmax) in [4] (po 10.5 mg/kg) of 1530 ng/mL. For the same compound, in series [4] (po 10.5 mg/kg), the Tmax was 3 h.

With `Cl.NCC1CCC(C(=O)N[C@@H](Cc2ccccc2)C(=O)Nc2ccc(CC(=O)O)cc2)CC1` (stereo partly drawn) [PKSI-527], in series [9], the “decrease in platelet count and fibrinogen level, increase in FDP level” value is listed as “significantly suppressed”.

For the compound Ecallantide, the “contact activated induced coagulation” value in series [10] is “delay”. Also, the “activated clotting time (ACT)” value in [11] is reported as “increase”.

In the case of aprotinin, in series [12], the postoperative bleeding result is reported as “decrease”.
